Laboratory results from patent US20230212123A1, “Pyridine Inhibitors of Glucosylceramide Synthase and Therapeutic Methods Using the Same” (THE REGENTS OF THE UNIVERSITY OF MICHIGAN, priority 2020, published 2023).
pIC50: −log10 of the molar value.

How the values were obtained:
[1] = biological target: T1, glucosylceramide synthase (GCS) (Canis lupus familiaris, UniProt A0A8I3MXG6); test: GCS inhibition in MDCK cell homogenates (Lysate IC50); assay type: biochemical, canine; conditions: MDCK cell homogenate
T1 construct: endogenous in cells; host or cells: MDCK cell homogenate
T1 sequence (A0A8I3MXG6 1-394): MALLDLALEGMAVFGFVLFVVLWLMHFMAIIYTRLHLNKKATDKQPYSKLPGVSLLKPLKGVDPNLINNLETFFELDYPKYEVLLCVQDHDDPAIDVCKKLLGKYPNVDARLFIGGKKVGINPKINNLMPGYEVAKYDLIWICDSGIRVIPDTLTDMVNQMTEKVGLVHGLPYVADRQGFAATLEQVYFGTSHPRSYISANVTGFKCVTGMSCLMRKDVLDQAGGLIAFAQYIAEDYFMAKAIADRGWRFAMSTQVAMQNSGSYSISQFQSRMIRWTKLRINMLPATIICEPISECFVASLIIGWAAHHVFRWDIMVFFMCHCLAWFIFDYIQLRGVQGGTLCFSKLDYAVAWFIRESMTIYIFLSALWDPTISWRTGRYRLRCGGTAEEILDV
Procedure: GCS Inhibition in MDCK Cell Homogenates (Lysate IC50, Table 1)
IC50 values for new compounds of the invention were determined as reported in Shayman J. A., Abe A. 2000. Glucosylceramide synthase: assay and properties. Methods Enzymol.311: 42-49.

[2] = biological target: T2, GCS in MDCKII cells (Canis lupus familiaris, UniProt A0A8I3MXG6); test: GCS inhibition in MDCKII cells (glucosylceramide content after 24 h); assay type: cell-based, canine; conditions: 24 hours exposure, glucosylceramide level
T2 construct: whole cellular lipids of wild type MDCKII cells were extracted; endogenous in cells; host or cells: wild type MDCKII cells
T2 sequence (A0A8I3MXG6 1-394): T1 sequence (A0A8I3MXG6 1-394)
Procedure: GCS Inhibition in MDCKII Cells (MDCKII IC50, Table 1)
MDCKII cells were routinely maintained in medium consisting of Opti-MEM/F12 (1:1), 5% FBS, 100 U/mL of penicillin, 100 µg/mL streptomycin and 200 mM L-glutamine. MDCKII cells were newly thawed from frozen ampules every two months.
Stock solutions of water-insoluble glycosphingolipid inhibitors (100 mM) were prepared by dissolving each inhibitor into 100% ethanol as previously described (3). The inhibitor-ethanol solutions then were diluted 50X into 2 mM delipidated bovine serum albumin-phosphate buffered saline solution to make water-soluble glycosphingolipid inhibitor-bovine serum albumin complexes. The inhibitor-bovine serum album complexes were sterile-filtered and stored at -20° C. Prior to use, portions of the inhibitor-bovine serum albumin complexes were further diluted with Opti-F12 to make treatment solutions. Equal amounts of bovine serum albumin and ethanol were added into the control cultures. Cells (5 x 10^5) were seeded into 10-cm culture dishes containing 10 ml of Opti-F12 with 5% FBS. After 24 hours, the medium was replaced with fresh serum-free Opti-F12 medium, and cells were exposed to candidate GCS inhibitors at concentrations of 0, 1, 3, 10, 30, 100 and 300 nM for 24 hours.
Following inhibitor treatment, whole cellular lipids of wild type MDCKII cells were extracted as previously described in detail (10). Briefly, cells were washed with ice-cold phosphate buffered saline, fixed by methanol, and collected with rubber scraper. Chloroform was then added to yield a theoretical ratio of chloroform:methanol:water at 1:2:0.8 (v/v/v) to form a mono-phase. Cell debris and proteins were removed by centrifugation at 2200 x g for 30 min. The supernatants were portioned by adding chloroform and 0.9% NaCl. The lower organic phases containing neutral glycosphingolipids lipids were washed with methanol and 0.9% NaCl, and subjected to base- and acid-hydrolysis (10). A portion of purified glycosphingolipids normalized to 100 nmol of total phospholipids was analyzed by high performance thin layer chromatography. The thin layer chromatography separations were processed twice. The plate pretreated with 1% sodium borate was first developed in a solvent system consisting of chloroform/methanol (98/2, v/v). After air drying, the plate was then developed in a solvent system containing chloroform/methanol/water (70/30/4, v/v/v). The levels of glucosylceramide were detected by charring with 8% cupric sulfate in 8% phosphoric acid, and quantified by densitometric scanning using ImageJ, NIH Image. Image data was analyzed, and the IC50 of each inhibitor was calculated using GraphPad Prism (version 5.03).

Row | Compound | pIC50 [1] | pIC50 [2]
1 | 2-(2,3-dihydro-1H-inden-2-yl)-N-((1R,2R)-1-hydroxy-1-(6-methoxypyridin-3-yl)-3-(pyrrolidin-1-yl)propan-2-yl)acetamide [Example 1] | < 6.00 | < 6.00
2 | O=C(CC1Cc2ccccc2C1)N[C@H](CN1CCCC1)[C@H](O)c1cc(Cl)ccn1 (stereo in doubt) [Example 23, (+/-)-N-(1-(4-chloropyridin-2-yl)-1-hydroxy-3-(pyrrolidin-1-yl)propan-2-yl)-2-(2,3-dihydro-1H-inden-2-yl)acetamide] | 7.79 | 
3 | O=C(CC1Cc2ccccc2C1)N[C@@H](CN1CCCC1)[C@@H](O)c1cc(Cl)ccn1 (stereo in doubt) [Example 26] | < 5.70 | 
4 | COc1cccc([C@@H](O)[C@@H](CN2CCCC2)NC(=O)CC2Cc3ccccc3C2)n1 [Example 3, 2-(2,3-dihydro-1H-inden-2-yl)-N-((1S,2R)-1-hydroxy-1-(6-methoxypyridin-2-yl)-3-(pyrrolidin-1-yl)propan-2-yl)acetamide] | 6.70 | 7.52
5 | O=C(CC1Cc2ccccc2C1)N[C@H](CN1CCCC1)[C@H](O)c1ccccn1 [Example 4, 2-(2,3-dihydro-1H-inden-2-yl)-N-((1S,2R)-1-hydroxy-1-(pyridin-2-yl)-3-(pyrrolidin-1-yl)propan-2-yl)acetamide] | 6.82 | 7.77
6 | CC(C)(C)Oc1ccc([C@@H](O)[C@@H](CN2CCCC2)NC(=O)CC2Cc3ccccc3C2)nc1 [Example 7, N-((1S,2R)-1-(5-(tert-butoxy)pyridin-2-yl)-1-hydroxy-3-(pyrrolidin-1-yl)propan-2-yl)-2-(2,3-dihydro-1H-inden-2-yl)acetamide] | 7.79 | 8.10
7 | CC(C)(C)Oc1ccc([C@H](O)[C@H](CN2CCCC2)NC(=O)CC2Cc3ccccc3C2)nc1 [Example 18, N-((1R,2S)-1-(5-(tert-butoxy)pyridin-2-yl)-1-hydroxy-3-(pyrrolidin-1-yl)propan-2-yl)-2-(2,3-dihydro-1H-inden-2-yl)acetamide] | < 5.70 | 
8 | O=C(CC1Cc2ccccc2C1)N[C@H](CN1CCCC1)[C@H](O)c1ccnc(Cl)c1 [Example 27, N-((1R,2R)-1-(2-chloropyridin-4-yl)-1-hydroxy-3-(pyrrolidin-1-yl)propan-2-yl)-2-(2,3-dihydro-1H-inden-2-yl)acetamide] |  | 7.18

Now from value to compound:

Row | pIC50 [1] | pIC50 [2] | Compound
9 | 6.60 | 8.19 | O=C(CC1Cc2ccccc2C1)N[C@H](CN1CCCC1)[C@H](O)c1ccc(OC(F)(F)F)cn1 (racemic) [Example 5, 2-(2,3-dihydro-1H-inden-2-yl)-N-((1S,2R)-1-hydroxy-3-(pyrrolidin-1-yl)-1-(5-(trifluoromethoxy)pyridin-2-yl)propan-2-yl)acetamide]
10 | 7.61 | 8.17 | COc1ccc(C(O)[C@@H](CN2CCCC2)NC(=O)CC2Cc3ccccc3C2)nc1 (stereo in doubt) [Example 2, 2-(2,3-dihydro-1H-inden-2-yl)-N-((1R,2R)-1-hydroxy-1-(5-methoxypyridin-2-yl)-3-(pyrrolidin-1-yl)propan-2-yl)acetamide]
11 | 7.66 | 8.62 | O=C(CC1Cc2ccccc2C1)N[C@H](CN1CCCC1)[C@H](O)c1ccc(OCC(F)(F)F)cn1 [Example 6, 2-(2,3-dihydro-1H-inden-2-yl)-N-((1S,2R)-1-hydroxy-3-(pyrrolidin-1-yl)-1-(5-(2,2,2-trifluoroethoxy)pyridin-2-yl)propan-2-yl)acetamide]
12 | < 5.70 |  | COc1ccc([C@H](O)[C@H](CN2CCCC2)NC(=O)CC2Cc3ccccc3C2)nc1 [Example 11, 2-(2,3-dihydro-1H-inden-2-yl)-N-((1R,2S)-1-hydroxy-1-(5-methoxypyridin-2-yl)-3-(pyrrolidin-1-yl)propan-2-yl)acetamide]
13 | < 6.00 |  | O=C(CC1Cc2ccccc2C1)N[C@@H](CN1CCCC1)[C@@H](O)c1ccc(OC(F)(F)F)cn1 [Example 22, 2-(2,3-dihydro-1H-inden-2-yl)-N-((1R,2S)-1-hydroxy-3-(pyrrolidin-1-yl)-1-(5-(trifluoromethoxy)pyridin-2-yl)propan-2-yl)acetamide]
